Experiments:
Panc02 cells = experiment: Cell viability (MTT assay) in Panc02 cells; assay type: cell-based, murine; conditions: 96 hours of drug exposure
Protocol: The murine pancreatic cancer cell line Panc02, which is syngeneic to C57Bl/6 mice was a kind gift from Professor Michael A. Hollingsworth, UNMC, Omaha, Nebr. Panc02 cells were grown in 75 cm^2 cell culture flasks and maintained in DMEM medium supplemented with 10% fetal bovine serum (FBS), L-glutamine and penicillin (100 U/ml)/streptomycin (100 μg/ml) (both from Gibco Life Technologies, Carlsbad, Calif., USA). Cells were incubated at 37° C. in a humidified atmosphere containing 5% CO2.
To see cytotoxic effect of different drugs and nanoemulsion formulation, 5000 cells were seeded in each well of the 96-well plate for overnight at 37° C. in a humidified atmosphere containing 5% CO2. Various drugs (Paclitaxel, Abraxane, Gemcitabine and solution and nanoemulsion of DHA-SBT-1214) were diluted at concentrations ranging from 0 nM, 0.01 nM, 0.1 nM, 1 nM, 10 nM, 100 nM, 1000 nM to 10000 nM and Panc02 cells treated with these concentrations for 96 hours. After incubation, cells were treated with 3-(4,5-dimethylthiazol-2-yl)-2,5-diphenyltetrazolium bromide ([…]). MU crystals were dissolved with DMSO and plates were read at 570 nm absorbance using a BioTek Synergy HTX Multi-Mode Microplate Reader.
Cells were seeded at 0.5×10^6 cells/well in 6-well plates for overnight at 37 C in a humidified atmosphere containing 5% CO2. […] The percentage maximal response is shown as a function of anti-cancer agents when administered to Panc02 cells. The cell viability was measured by the MTT assay after 96 hours of incubation at 37° C. Data represent mean±standard deviation (n=3). Significant differences are indicated as follows: *p<0.05, and **p<0.01. The expression level of PD-L1 was determined using flow cytometry as follows. […] The cells were washed once with 3% BSA/PBS and analyzed by flow cytometer on a FACSCalibur flow cytometer and CellQuest™ Pro version 6.0 software (both from Becton-Dickinson and Co.). […]

Panc02 induced tumor = experiment: Subcutaneous Panc02 syngeneic pancreatic cancer model, single and combination therapy; assay type: in vivo, C57Bl/6 mice
Protocol: In addition to evaluation of efficacy in CSC-rich PDAC models, the efficacy of NE-DHA-SBT-1214 in combination with antibody targeted to PD-L1 immune checkpoint inhibitor was examined in subcutaneous (subQ) Panc-2 syngeneic pancreatic cancer model developed in […] mice. After transplantation of the Panc-2 cells, the mice were divided into groups for weekly treatment by intravenous administration of vehicle (as control), gemcitabine (at 120 mg/kg), ABRAXANE® (at 120 mg/kg) and NE-DHA-SBT-1214 (at 10 and 25 mg/kg) as either single in combination with either IgG control or anti-PD-L1 antibody (200 μg/dose). The antibodies were administered intraperitoneally. The treatment started two weeks after tumor transplantation when tumor mass became palpable at 50 to 150 mm^3 in volume.
All experiments involving the use of animals were carried out in strict accordance with the recommendations in the guide for the care and use of laboratory animals of the National Institutes of Health, via a research protocol that was approved by Northeastern University Institutional Animal Care and Use Committee (IACUC). […] Tumor development was monitored twice weekly. The tumor size was measured with a caliper on a weekly basis and approximate tumor volumes determined using the formula 0.5ab^2, where b is the smaller of the two perpendicular diameters. […]

[1] = test system: PD-L1 surface expression in Panc02 cells; experiment: PD-L1 surface protein expression by flow cytometry; assay type: cell-based, murine; conditions: IC50 concentration, 48 hours
Protocol: Cells were seeded at 0.5×10^6 cells/well in 6-well plates for overnight at 37 C in a humidified atmosphere containing 5% CO2. […] The percentage maximal response is shown as a function of anti-cancer agents when administered to Panc02 cells. The cell viability was measured by the MTT assay after 96 hours of incubation at 37° C. Data represent mean±standard deviation (n=3). Significant differences are indicated as follows: *p<0.05, and **p<0.01. The expression level of PD-L1 was determined using flow cytometry as follows. Briefly, cells harvested from in vitro cultures were washed twice with 3% BSA/PBS and then incubated with rat anti-PD-L1 or isotype control antibodies ([…], BioXcell, West Lebanon, N.H., USA) for 30 minutes at 4 C, then washed three times and incubated with anti-rat AlexaFluor 488 conjugated Antibody. The cells were washed once with 3% BSA/PBS and analyzed by flow cytometer on a FACSCalibur flow cytometer and CellQuest™ Pro version 6.0 software (both from Becton-Dickinson and Co.).
Panc02 cells were treated with gemcitabine, Abraxane™, paclitaxel and DHA-SBT-1214 both in solution and nanoemulsion for 48 hours to determine whether they can induce PD-L1 protein expression. PD-L1 expression levels on tumor cells were determined by flow cytometry and is expressed as the A mean fluorescence intensity (ΔMFI; MFI using anti-PD-L1 subtracted from the isotype control). […] PD-L1 expression was analyzed using flow cytometry and is presented as ΔMFI (MFI using anti-PD-L1 subtracted from the isotype control). Data represent the mean±standard deviation of at least 3 independent experiments; *p<0.05, **p<0.01, ***p<0.001. As reported previously, PD-L1 level enhanced in pancreatic tumor tissues compared to in vitro growing cells as shown in FIG. 8.

[2] = target: P-glycoprotein (P-gp) transporter (Homo sapiens, UniProt P08183); conditions: cited from earlier work
[3] = Formulation concentration, droplet properties and storage stability
Description: The droplet size is consistently less than 200 nm in diameter allowing one to filter sterilize the final formulation. The zeta potential of the nanoemulsion is in the range of negative 23 mV to 33 m.

Sequence of P-glycoprotein (P-gp) transporter (P08183 whole entry): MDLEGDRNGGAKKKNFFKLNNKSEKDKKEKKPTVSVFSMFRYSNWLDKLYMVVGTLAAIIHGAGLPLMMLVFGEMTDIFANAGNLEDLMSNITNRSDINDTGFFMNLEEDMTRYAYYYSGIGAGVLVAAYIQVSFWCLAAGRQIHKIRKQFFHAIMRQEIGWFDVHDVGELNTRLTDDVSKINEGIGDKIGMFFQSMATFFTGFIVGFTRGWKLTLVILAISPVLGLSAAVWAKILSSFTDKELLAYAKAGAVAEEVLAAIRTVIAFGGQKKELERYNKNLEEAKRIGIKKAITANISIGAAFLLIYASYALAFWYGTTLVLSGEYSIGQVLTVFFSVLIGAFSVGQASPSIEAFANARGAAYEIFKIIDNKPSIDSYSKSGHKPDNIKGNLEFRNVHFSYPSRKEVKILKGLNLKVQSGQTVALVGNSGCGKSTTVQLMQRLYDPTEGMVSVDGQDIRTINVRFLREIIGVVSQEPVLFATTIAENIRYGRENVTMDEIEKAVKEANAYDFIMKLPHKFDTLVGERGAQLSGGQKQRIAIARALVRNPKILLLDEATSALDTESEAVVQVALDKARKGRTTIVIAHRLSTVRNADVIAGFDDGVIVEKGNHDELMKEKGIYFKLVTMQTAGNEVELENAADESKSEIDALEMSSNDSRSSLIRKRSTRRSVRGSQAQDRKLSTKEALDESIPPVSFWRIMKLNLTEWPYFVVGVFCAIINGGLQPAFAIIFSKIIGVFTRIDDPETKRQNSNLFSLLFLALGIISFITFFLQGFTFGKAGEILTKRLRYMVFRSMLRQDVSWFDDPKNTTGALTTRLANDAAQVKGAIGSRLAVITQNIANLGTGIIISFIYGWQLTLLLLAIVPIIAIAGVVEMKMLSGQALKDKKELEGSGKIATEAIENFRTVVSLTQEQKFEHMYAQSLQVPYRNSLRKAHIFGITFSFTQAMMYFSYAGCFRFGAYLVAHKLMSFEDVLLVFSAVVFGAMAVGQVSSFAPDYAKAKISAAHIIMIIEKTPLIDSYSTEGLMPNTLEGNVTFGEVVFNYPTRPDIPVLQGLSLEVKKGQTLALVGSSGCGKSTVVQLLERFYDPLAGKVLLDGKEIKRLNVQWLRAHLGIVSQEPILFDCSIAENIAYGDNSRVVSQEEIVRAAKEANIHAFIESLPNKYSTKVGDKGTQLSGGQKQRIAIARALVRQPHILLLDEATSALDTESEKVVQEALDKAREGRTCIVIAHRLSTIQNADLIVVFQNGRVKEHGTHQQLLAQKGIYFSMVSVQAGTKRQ

SMILES	IC50 (Panc02 cells) [nM]	efficacy compared to abraxane at 120 mg/kg (Panc02 induced tumor; 10 mg/kg)	PD-L1 surface expression (ΔMFI) [1]	substrate for MDR mechanisms such as P-gp over-expression [2]	increase in drug concentration in omega-3 fatty acid based nanoemulsion by DHA conjugation [3] [fold]	stability ([3]; in Solutol-HS15)	formulated drug concentration ([3]; in Tween 80 or Solutol-HS15) [mg/mL]	IC50 (Panc02 cells; Mus musculus) [nM]	tumor growth suppression (Panc02 induced tumor; 120 mg/kg weekly ×3)
CC/C=C\C/C=C\C/C=C\C/C=C\C/C=C\C/C=C\CCC(=O)O[C@@H](C(=O)O[C@H]1C[C@@]2(O)[C@@H](OC(=O)c3ccccc3)[C@@H]3[C@]4(OC(C)=O)CO[C@@H]4C[C@H](O)[C@@]3(C)C(=O)[C@H](OC(=O)C3CC3)C(=C1C)C2(C)C)[C@H](C=C(C)C)NC(=O)OC(C)(C)C [DHA-SBT-1214, Docosahexaenoic acid conjugate of SBT-1214]	262	superior to abraxane treatment	upregulated	not a substrate	5	less than 24 hours	6	–	–
Nc1ccn([C@@H]2O[C@H](CO)[C@@H](O)C2(F)F)c(=O)n1 [gemcitabine]	–	–	upregulated	–	–	–	–	154	moderate effect

From patent publication US11497713B2, “Combination taxoid nanoemulsion with immunotherapy in cancer” (TargaGenix, Inc., priority 2017, dated 2022)
